Reference: patent US4959368A, “Therapeutic agent for neurological diseases” (Mitsui Petrochemical Industries Ltd., priority 1986, dated 1990)
Like-named read-outs stand apart in the source and are kept apart here.

How the values were obtained:
[1] = test system: mice; test: Acute toxicity, mouse; format: in vivo; conditions: 24 hours
Method: (§1) The acute toxicity of the compounds of the invention was examined by the following method.
(§2) Male ddy-strain 5-week old mice and male Wistar-strain 8 week old rats, five per group, were used as experimental animals. Each of the compounds was dissolved in saline and administered perorally, and the toxicity of the compound was assessed 24 hours after the administration.

[2] = Acute toxicity, mouse; format: in vivo; conditions: in vivo, po, read-out: Presumed LD50
Method: as §1, §2

[3] = test system: mouse neuroblastoma cell line neuro-2a; test: Activity on neuro-2a, cells with outgrown neurites; format: cell-based
In short: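 Mouse neuro-2a cells in DMEM with FCS exposed to compounds for 24 h (up to 6 concentrations, triplicate runs), glutaraldehyde-fixed and methylene blue-stained. Proportion of cells bearing a neurite at least twice the cell's long diameter counted microscopically over ≥200 cells.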

[4] = Table 3 Run No. 4, 0.1 mM, control 3.1 ± 0.2
[5] = Table 3 Run No. 4, 0.5 mM, control 3.1 ± 0.2
[6] = Table 3 second Run No. 5, 0.3 mM, control 4.5 ± 0.3
[7] = Table 3 second Run No. 5, 0.5 mM, control 4.5 ± 0.3
[8] = Table 3 Run No. 2, 0.1 mM, control 1.9 ± 0.9
[9] = Table 3 Run No. 7, 0.5 mM, control 2.5 ± 0.7

Compound: COCCN1C(=O)Cc2cnc(N3CCNCC3)nc21 [Compound 428]
- Number of dead animals/number of test animals ([1]; Table 7, 1000 mg/kg p.o.): 0/5
- LD50 at 24 h ([2]; Table 7, p.o.): > 1000 mg/kg
- Cells having neurites with a length at least twice the long diameter of cell/total number of cells ([3]; Table 3 Run No. 3, 0.03 mM, control 3.9 ± 0.3): 6.7 ± 1.5%
- Cells having neurites with a length at least twice the long diameter of cell/total number of cells ([3]; Table 3 Run No. 3, 0.3 mM, control 3.9 ± 0.3): 17.3 ± 0.8%
- Cells having neurites with a length at least twice the long diameter of cell/total number of cells ([3]; Table 3 Run No. 3, 1 mM, control 3.9 ± 0.3): 30.1 ± 2.4%
- Cells having neurites with a length at least twice the long diameter of cell/total number of cells [3, 4]: 13.7 ± 2.1%
- Cells having neurites with a length at least twice the long diameter of cell/total number of cells [3, 5]: 27.2 ± 3.1%
- Cells having neurites with a length at least twice the long diameter of cell/total number of cells ([3]; Table 3 Run No. 4, 1 mM, control 3.1 ± 0.2): 29.1 ± 2.4%
- Cells having neurites with a length at least twice the long diameter of cell/total number of cells [3, 6]: 9.8 ± 2.3%
- Cells having neurites with a length at least twice the long diameter of cell/total number of cells [3, 7]: 14.1 ± 1.5%
- Cells having neurites with a length at least twice the long diameter of cell/total number of cells ([3]; Table 3 second Run No. 5, 1 mM, control 4.5 ± 0.3): 15.6 ± 1.0%

Compound: CCCCOc1ccnc(N2CCNCC2)n1 [Compound 128]
- Number of dead animals/number of test animals ([1]; Table 6, 300 mg/kg p.o.): 0/5
- Number of dead animals/number of test animals ([1]; Table 6, 500 mg/kg p.o.): 3/5
- Number of dead animals/number of test animals ([1]; Table 6, 1000 mg/kg p.o.): 4/5
- LD50 at 24 h ([2]; Table 6, p.o.): 300 to 550 mg/kg
- Cells having neurites with a length at least twice the long diameter of cell/total number of cells ([3]; Table 3 Run No. 1, 0.028 μM, control 2.2 ± 0.8): 4.4 ± 0.7%
- Cells having neurites with a length at least twice the long diameter of cell/total number of cells ([3]; Table 3 Run No. 1, 0.29 μM, control 2.2 ± 0.8): 3.4 ± 0.6%
- Cells having neurites with a length at least twice the long diameter of cell/total number of cells ([3]; Table 3 Run No. 1, 28 μM, control 2.2 ± 0.8): 5.2 ± 0.9%

Compound: CCOC(=O)c1cnc(N2CCNCC2)nc1C(=O)OCC [Compound 144]
- Number of dead animals/number of test animals ([1]; Table 6, 300 mg/kg p.o.): 0/5
- Number of dead animals/number of test animals ([1]; Table 6, 500 mg/kg p.o.): 0/5
- Number of dead animals/number of test animals ([1]; Table 6, 1000 mg/kg p.o.): 3/5
- LD50 at 24 h ([2]; Table 6, p.o.): 550 to 1000 mg/kg
- Cells having neurites with a length at least twice the long diameter of cell/total number of cells [3, 8]: 9.9 ± 1.5%
- Cells having neurites with a length at least twice the long diameter of cell/total number of cells ([3]; Table 3 Run No. 2, 0.3 mM, control 1.9 ± 0.9): 19.4 ± 3.2%

Compound: CC(C)n1ccc2nc(N3CCNCC3)ncc2c1=O [Compound 713]
- Number of dead animals/number of test animals ([1]; Table 6, 300 mg/kg p.o.): 0/5
- Number of dead animals/number of test animals ([1]; Table 6, 500 mg/kg p.o.): 0/5
- Number of dead animals/number of test animals ([1]; Table 6, 1000 mg/kg p.o.): 2/5
- LD50 at 24 h ([2]; Table 6, p.o.): > 1000 mg/kg

Compound: CCCn1ccc2nc(N3CCNCC3)ncc2c1=O [Compound 715]
- Number of dead animals/number of test animals ([1]; Table 6, 300 mg/kg p.o.): 0/5
- Number of dead animals/number of test animals ([1]; Table 6, 500 mg/kg p.o.): 0/5
- Number of dead animals/number of test animals ([1]; Table 6, 1000 mg/kg p.o.): 4/5
- LD50 at 24 h ([2]; Table 6, p.o.): 550 to 1000 mg/kg

Compound: O=C1Cc2cnc(N3CCNCC3)nc2N1 [Compound 424]
- Number of dead animals/number of test animals ([1]; Table 7, 1000 mg/kg p.o.): 0/5
- LD50 at 24 h ([2]; Table 7, p.o.): > 1000 mg/kg
- Cells having neurites with a length at least twice the long diameter of cell/total number of cells ([3]; Table 3 first Run No. 5, 0.5 mM, no control given): 12.6 ± 1.1%
- Cells having neurites with a length at least twice the long diameter of cell/total number of cells ([3]; Table 3 first Run No. 5, 1 mM, no control given): 27.1 ± 2.1%

Compound: Cc1nc(N2CCNCC2)nc2c1CC(=O)N2C [Compound 468]
- Number of dead animals/number of test animals ([1]; Table 7, 1000 mg/kg p.o.): 1/5
- LD50 at 24 h ([2]; Table 7, p.o.): > 1000 mg/kg
- Cells having neurites with a length at least twice the long diameter of cell/total number of cells ([3]; Table 3 Run No. 10, 0.3 mM, control 1.7 ± 0.7): 5.8 ± 0.8%
- Cells having neurites with a length at least twice the long diameter of cell/total number of cells ([3]; Table 3 Run No. 10, 1 mM, control 1.7 ± 0.7): 15.7 ± 0.5%

Compound: CCOC(=O)c1cnc(N2CCNCC2)nc1N [Compound 120]
- Number of dead animals/number of test animals ([1]; Table 6, 300 mg/kg p.o.): 0/5
- Number of dead animals/number of test animals ([1]; Table 6, 500 mg/kg p.o.): 1/5
- Number of dead animals/number of test animals ([1]; Table 6, 1000 mg/kg p.o.): 4/5
- LD50 at 24 h ([2]; Table 6, p.o.): 550 to 1000 mg/kg
- Cells having neurites with a length at least twice the long diameter of cell/total number of cells [3, 8]: 10.2 ± 3.7%
- Cells having neurites with a length at least twice the long diameter of cell/total number of cells ([3]; Table 3 Run No. 10, 0.003 mM, control 1.7 ± 0.7): 2.6 ± 0.6%
- Cells having neurites with a length at least twice the long diameter of cell/total number of cells ([3]; Table 3 Run No. 10, 0.1 mM, control 1.7 ± 0.7): 6.5 ± 1.7%

Compound: CN1C(=O)Cc2cnc(N3CCNCC3)nc21 [Compound 406]
- Number of dead animals/number of test animals ([1]; Table 7, 1000 mg/kg p.o., 1000 mg/kg): 1/5
- LD50 at 24 h ([2]; Table 7, p.o.): > 1000 mg/kg
- Cells having neurites with a length at least twice the long diameter of cell/total number of cells [3, 4]: 16.2 ± 3.7%
- Cells having neurites with a length at least twice the long diameter of cell/total number of cells ([3]; Table 3 Run No. 4, 0.3 mM, control 3.1 ± 0.2): 29.9 ± 2.6%
- Cells having neurites with a length at least twice the long diameter of cell/total number of cells [3, 5]: 44.8 ± 0.8%
- Cells having neurites with a length at least twice the long diameter of cell/total number of cells ([3]; Table 3 Run No. 7, 0.1 mM, control 2.5 ± 0.7): 10.3 ± 1.6%
- Cells having neurites with a length at least twice the long diameter of cell/total number of cells ([3]; Table 3 Run No. 7, 0.3 mM, control 2.5 ± 0.7): 22.6 ± 2.2%
- Cells having neurites with a length at least twice the long diameter of cell/total number of cells [3, 9]: 40.2 ± 3.4%
- Cells having neurites with a length at least twice the long diameter of cell/total number of cells ([3]; Table 3 second Run No. 5, 0.03 mM, control 4.5 ± 0.3): 7.6 ± 1.8%
- Cells having neurites with a length at least twice the long diameter of cell/total number of cells [3, 6]: 18.4 ± 3.0%
- Cells having neurites with a length at least twice the long diameter of cell/total number of cells [3, 7]: 32.4 ± 4.3%

Compound: O=c1[nH]ccc2nc(N3CCNCC3)ncc12 [Compound 701]
- Number of dead animals/number of test animals ([1]; Table 6, 300 mg/kg p.o.): 0/5
- Number of dead animals/number of test animals ([1]; Table 6, 500 mg/kg p.o.): 3/5
- Number of dead animals/number of test animals ([1]; Table 6, 1000 mg/kg p.o.): 5/5
- LD50 at 24 h ([2]; Table 6, p.o.): 300 to 550 mg/kg
- Cells having neurites with a length at least twice the long diameter of cell/total number of cells ([3]; Table 3 Run No. 7, 0.03 mM, control 2.5 ± 0.7): 6.8 ± 0.8%
- Cells having neurites with a length at least twice the long diameter of cell/total number of cells [3, 9]: 42.5 ± 1.8%
- Cells having neurites with a length at least twice the long diameter of cell/total number of cells ([3]; Table 3 Run No. 7, 1 mM, control 2.5 ± 0.7): 57.2 ± 1.2%
- Cells having neurites with a length at least twice the long diameter of cell/total number of cells ([3]; Table 3 second Run No. 5, 0.1 mM, control 4.5 ± 0.3): 16.2 ± 1.2%
